From patent publication US11214803B2, “Modulators of YAP1 expression” (Ionis Pharmaceuticals, Inc., priority 2019, dated 2022)

Legend:
[1] = Tolerability in CD-1 mice, plasma chemistry markers (Example 19); format: in vivo; conditions: male CD-1 mice, 50 mg/kg s.c. twice a week for four weeks (8 treatments), day 26
Method: CD-1 mice were treated with modified oligonucleotides selected from studies described above and evaluated for changes in the levels of various plasma chemistry markers.
Groups of four male CD-1 mice at 4-6 weeks of age (obtained from Charles River) were injected subcutaneously twice a week for four weeks (for a total of 8 treatments) with 50 mg/kg of modified oligonucleotides. One group of male CD-1 mice was injected with PBS. Mice were euthanized on day 26 post start of treatment (24 hrs following the final administration).

[2] = tested on: Yap1 mRNA; assay: Yap1 mRNA in NCI H747 cells, RNA analysis (Example 31); format: cell-based, human; conditions: free uptake, approximately 48 hours
Method: Modified oligonucleotides described in the studies above were tested at various doses in colorectal adenocarcinoma cell line NCI H747. A control oligonucleotide 792169 was also tested.
Cultured NCI H747 cells at a density of 10,000 cells per well were treated using free uptake with modified oligonucleotides diluted to concentrations described in the tables below. After approximately 48 hours, Yap1 mRNA levels were measured as previously described using the Human Yap1 primer-probe set RTS4814. Yap1 mRNA levels were normalized to actin-beta content, as measured by primer probe set RTS5002. Results are presented in the tables below as percent control of the amount of Yap1 mRNA relative to untreated control cells (% UTC).

[3] = tested on: Yap1 mRNA; assay: Yap1 mRNA in Detroit-562 cells, RNA analysis (Example 38); format: cell-based, human; conditions: free uptake, approximately 48 hours
Method: Modified oligonucleotides described in the studies above were tested at various doses in pharynx carcinoma cell line Detroit-562. A control oligonucleotide 792169, described herein above, was also tested.
Cultured Detroit-562 cells at a density of 5000 cells per well were treated using free uptake with modified oligonucleotides diluted to concentrations described in the tables below. After approximately 48 hours, Yap1 mRNA levels were measured as previously described using the Human Yap1 primer-probe set RTS4814. Yap1 mRNA levels were normalized to actin-beta content, as measured by primer probe set RTS5002. Results are presented in the tables below as percent control of the amount of Yap1 mRNA relative to untreated control cells (% UTC).

[4] = tested on: Yap1 mRNA; assay: Yap1 mRNA in BICR56 cells, RNA analysis (Example 33); format: cell-based, human; conditions: free uptake, approximately 48 hours
Method: Modified oligonucleotides described in the studies above were tested at various doses in squamous cell carcinoma adherent keratinocyte cell line BICR56. A control oligonucleotide 792169 was also tested.
Cultured BICR56 cells at a density of 5000 cells per well were treated using free uptake with modified oligonucleotides diluted to concentrations described in the tables below. After approximately 48 hours, Yap1 mRNA levels were measured as previously described using the Human Yap1 primer-probe set RTS4814. Yap1 mRNA levels were normalized to actin-beta content, as measured by primer probe set RTS5002. Results are presented in the tables below as percent control of the amount of Yap1 mRNA relative to untreated control cells (% UTC).

[5] = tested on: Yap1 mRNA; assay: Yap1 mRNA in CAL33 cells, RNA analysis (Example 36); format: cell-based, human; conditions: free uptake, approximately 48 hours
Method: (§1) Modified oligonucleotides described in the studies above were tested at various doses in tongue squamous cell carcinoma line CAL33. A control oligonucleotide 792169, described herein above, was also tested.
Cultured CAL33 cells at a density of 5000 cells per well were treated using free uptake with modified oligonucleotides diluted to concentrations described in the tables below. After approximately 48 hours, Yap1 mRNA levels were measured as previously described using the Human Yap1 primer-probe set RTS4814. Yap1 mRNA levels were normalized to actin-beta content, as measured by primer probe set RTS5002. Results are presented in the tables below as percent control of the amount of Yap1 mRNA relative to untreated control cells (% UTC).

[6] = tested on: CAL33 cells; assay: Cell proliferation assay in CAL33 cells, CellTiter-Glo (Example 36); format: cell-based, human; conditions: free uptake, approximately 144 hours
Method: as §1
Cultured CAL33 cells at a density of 1000 cells/well were treated using free uptake with modified oligonucleotides diluted to concentrations described in the tables below. After approximately 144 hours, cell proliferation was measured using the luminescent cell viability CellTiter-Glo® 2.0 Assay (Promega). Results are presented in the tables below as percent control of the amount of luminescence in samples treated with modified oligonucleotides relative to untreated control cells (% UTC).

[7] = tested on: SCC-25 cells; assay: Cell proliferation assay in SCC-25 cells, CellTiter-Glo (Example 42); format: cell-based, human; conditions: free uptake, approximately 144 hours
Method: Modified oligonucleotides described in the studies above were tested at various doses in tongue squamous cell carcinoma cell line SCC-25. A control oligonucleotide 792169, described herein above, was also tested.
Cultured SCC-25 cells at a density of 1000 cells/well were treated using free uptake with modified oligonucleotides diluted to concentrations described in the tables below. After approximately 144 hours, cell proliferation was measured using the luminescent cell viability CellTiter-Glo® 2.0 Assay (Promega). Results are presented in the tables below as percent control of the amount of luminescence in samples treated with modified oligonucleotides relative to untreated control cells (% UTC).

[8] = tested on: Yap1 mRNA; assay: Yap1 mRNA in SNU-899 cells, RNA analysis (Example 43); format: cell-based, human; conditions: free uptake, approximately 48 hours
Method: Modified oligonucleotides described in the studies above were tested at various doses in laryngeal squamous cell carcinoma cell line SNU-899. A control oligonucleotide 792169, described herein above, was also tested.
Cultured SNU-899 cells at a density of 5000 cells per well were treated using free uptake with modified oligonucleotides diluted to concentrations described in the tables below. After approximately 48 hours, Yap1 mRNA levels were measured as previously described using the Human Yap1 primer-probe set RTS4814. Yap1 mRNA levels were normalized to actin-beta content, as measured by primer probe set RTS5002. Results are presented in the tables below as percent control of the amount of Yap1 mRNA relative to untreated control cells (% UTC).

Substance “1198440 (AAGTGTATGTCAGAAG; cEt, 2'-MOE, 5-methylcytosine, phosphorothioate modifications, further chemistry not given here) [compound 1198440]” has an ALT [1] of 121 U/L, an AST [1] of 140 U/L and a BUN [1] of 19 mg/dL. For the same substance, the TBIL [1] was 0.22 mg/dL, the “human Yap1 mRNA expression” value ([2]; 0.04 μM) was 73 % UTC and the “human Yap1 mRNA expression” value ([2]; 0.2 μM) was 53 % UTC. The “human Yap1 mRNA expression” value ([2]; 1 μM) was 21 % UTC, the “human Yap1 mRNA expression” value ([2]; 5 μM) was 9 % UTC and the “human Yap1 mRNA expression” value ([3]; 0.04 μM) was 32 % UTC. For the same substance, the “human Yap1 mRNA expression” value ([3]; 0.2 μM) was 8 % UTC, the “human Yap1 mRNA expression” value ([3]; 1 μM) was 3 % UTC and the “human Yap1 mRNA expression” value ([3]; 5 μM) was 2 % UTC. The “human Yap1 mRNA expression” value ([4]; 0.04 μM) was 40 % UTC, the “human Yap1 mRNA expression” value ([4]; 0.2 μM) was 10 % UTC and the “human Yap1 mRNA expression” value ([4]; 1 μM) was 7 % UTC. The “human Yap1 mRNA expression” value ([4]; 5 μM) was 7 % UTC, the “human Yap1 mRNA expression” value ([5]; 0.04 μM) was 43 % UTC and the “human Yap1 mRNA expression” value ([5]; 0.2 μM) was 14 % UTC. The “human Yap1 mRNA expression” value ([5]; 1 μM) was 5 % UTC, the “human Yap1 mRNA expression” value ([5]; 5 μM) was 5 % UTC and the “Antiproliferative effect (cell proliferation, luminescence)” value (“Antiproliferative effect” below) ([6]; 0.04 μM) was 84 % UTC. For the same substance, the “Antiproliferative effect” value ([6]; 0.2 μM) was 67 % UTC, the “Antiproliferative effect” value ([6]; 1 μM) was 58 % UTC and the “Antiproliferative effect” value ([6]; 5 μM) was 44 % UTC. For the same substance, the “Antiproliferative effect” value ([7]; 0.08 μM) was 56 % UTC, the “Antiproliferative effect” value ([7]; 0.4 μM) was 27 % UTC and the “Antiproliferative effect” value ([7]; 2 μM) was 20 % UTC. The “Antiproliferative effect” value ([7]; 10 μM) was 16 % UTC, the “human Yap1 mRNA expression” value ([8]; 0.04 μM) was 35 % UTC and the “human Yap1 mRNA expression” value ([8]; 0.2 μM) was 12 % UTC. The “human Yap1 mRNA expression” value ([8]; 1 μM) was 3 % UTC and the “human Yap1 mRNA expression” value ([8]; 5 μM) was 2 % UTC.
